# Test results reported in US10392338B2, “Spirofuranone compounds, derivatives thereof and processes for their preparation” (Yissum Research Development Company of The Hebrew …, priority 2015, dated 2019).
# “Also recorded” adds a separate entry of the source.
# Experiments:
# rTRPV1(Y511G) = rTRPV1(Y511G) (Rattus norvegicus, UniProt O35433, Y511G); conditions: 300 μM; VBS domain mutated
# Method: Averaged (n=30 cells) ratiometric calcium responses of HEK293T cells expressing rat TRPV1 (rTRPV1), as a function of time. Application of different SAVA (as indicated; 300 μM; yellow bar) was followed by capsaicin (CAP; 5 μM; red bar). […] Same as B, but recorded from HEK293T cells expressing rTRPV1(Y511G) in which VBS domain is mutated. […] D. Superimposed capsaicin-(1 μM; grey line) and SAVA-(compound 6 in B; 300 μM; black line)-induced currents (Vholding=−40 mV) recorded in whole cell configuration from HEK293T cells expressing the rTRPV1. Recording were done on cells with similar TRPV1 expressing levels (determined by the initial response to pH 5.5). […] E. Current-clamp recording (I=0) in the whole cell configuration from small-diameter (C-fiber) rat TG neurons (P2 old pup).
# To verify, that the evoked response of our TRPV1-positive compounds is through the Vanilloid-binding site (VBS), we analyzed their activation profile on TRPV1(Y511 G) construct.
# Next, the new scaffolds-evoked TRPV1 currents were analyzed using the voltage-clamp whole-cell configuration of the patch-clamp technique on HEK293T cells stably transfected with the rTRPV1 gene.
# [1] = tested on: small-diameter (C-fiber) rat TG neurons; assay: Current-clamp whole-cell recording of membrane potential in dissociated TG sensory neurons; format: cell-based; conditions: capsaicin 0.2 μM; current clamp I=0; P2 rat TG neurons
# Excerpt: In dissociated sensory neurons from the trigeminal ganglion (TG) of P2 rat, the inventors have recorded the membrane potential following the application of the different molecules, using current-clamp mode in the whole-cell configuration. […] In contrast, the compound of the invention have evoked slow (in comparison to capsaicin), ˜20 mV depolarization, with no action potential firing (FIG. 16E, upper trace).
# rTRPV1(Y511G), sequence (O35433 whole entry Y511G, the tested form may be a part): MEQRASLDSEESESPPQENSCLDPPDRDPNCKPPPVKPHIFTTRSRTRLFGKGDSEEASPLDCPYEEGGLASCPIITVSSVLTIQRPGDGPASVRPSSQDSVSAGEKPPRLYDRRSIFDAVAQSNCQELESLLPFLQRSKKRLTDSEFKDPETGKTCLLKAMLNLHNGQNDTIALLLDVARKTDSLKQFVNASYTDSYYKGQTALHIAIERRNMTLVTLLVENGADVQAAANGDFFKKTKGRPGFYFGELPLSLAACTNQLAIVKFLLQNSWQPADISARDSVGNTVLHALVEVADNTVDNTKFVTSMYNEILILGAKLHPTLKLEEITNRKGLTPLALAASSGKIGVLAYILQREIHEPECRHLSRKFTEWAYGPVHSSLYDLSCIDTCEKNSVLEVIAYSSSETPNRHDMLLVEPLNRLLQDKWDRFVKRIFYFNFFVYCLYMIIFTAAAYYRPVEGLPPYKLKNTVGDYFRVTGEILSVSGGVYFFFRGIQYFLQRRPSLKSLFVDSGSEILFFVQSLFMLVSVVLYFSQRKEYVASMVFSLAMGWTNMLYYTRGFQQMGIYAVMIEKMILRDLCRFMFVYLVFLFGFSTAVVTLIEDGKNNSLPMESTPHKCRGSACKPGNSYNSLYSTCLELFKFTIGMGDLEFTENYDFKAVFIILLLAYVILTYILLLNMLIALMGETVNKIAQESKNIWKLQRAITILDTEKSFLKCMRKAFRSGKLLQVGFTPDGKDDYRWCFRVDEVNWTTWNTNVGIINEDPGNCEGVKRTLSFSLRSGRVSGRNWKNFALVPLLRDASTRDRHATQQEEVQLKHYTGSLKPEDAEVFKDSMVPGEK
Structure (SMILES),calcium response of cells expressing mutant rTRPV1(Y511G) (rTRPV1(Y511G)),depolarization and action potential firing [1]
"NCCOB(c1ccccc1)c1ccccc1 [2-APB, 2-aminoethoxydiphenyl borate]",responded,
"COc1cc(CNC(=O)CCCC/C=C/C(C)C)ccc1O [capsaicin, Capsaicin]",,"pronounced depolarization and burst of action potentials, followed by depolarization block; also recorded: robust depolarization with burst of action potentials followed by depolarization block"
